Values quoted from earlier work in US20050020536A1, “Highly pure fondaparinux sodium composition, process for preparing said composition and pharmaceutical compositions containing it as active principle” (priority 2003, published 2005).

System: factor Xa
Details: general statement in the introduction, no method given

Structure (SMILES): CO[C@H]1O[C@H](COS(=O)(=O)[O-])[C@@H](O[C@@H]2O[C@@H](C(=O)[O-])[C@@H](O[C@H]3O[C@H](COS(=O)(=O)[O-])[C@@H](O[C@@H]4O[C@H](C(=O)[O-])[C@@H](O[C@H]5O[C@H](COS(=O)(=O)[O-])[C@@H](O)[C@H](O)[C@H]5NS(=O)(=O)[O-])[C@H](O)[C@H]4O)[C@H](OS(=O)(=O)[O-])[C@H]3NS(=O)(=O)[O-])[C@H](O)[C@H]2OS(=O)(=O)[O-])[C@H](O)[C@H]1NS(=O)(=O)[O-].[Na+].[Na+].[Na+].[Na+].[Na+].[Na+].[Na+].[Na+].[Na+].[Na+] [Fondaparinux sodium, methyl O-2-deoxy-6-O-sulfo-2-(sulfoamino)-α-D-glucopyranosyl-(1→4)-O-β-D-glucopyranuronosyl-(1→4)-O-2-deoxy-3,6-di-O-sulfo-2-(sulfoamino)-α-D-glucopyranosyl-(1→4)-2-O-sulfo-α-D-glucopyranosyl-(1→4)-O-2-O-sulfo-L-idopyranurosyl-(1→4)-2-deoxy-6-O-sulfo-2-(sulfoamino)-α-D-glucopyranoside, decakissodium salt]
- anti-factor Xa (anti Xa) activity: very powerful
